This note sets out measurements from PubChem BioAssay (NCI).

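How tested: cells in 96-well plates exposed to compound for 48 hours at five concentrations. GI50 marks 50% less growth. The concentration for full growth arrest is given as TGI.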 A value given as a limit tells only on which side of the number the result lay.

Common to all, as to assay: NCI tumour cell line growth inhibition, 48 h
Test [1] deals with SNB-19 CNS.
Test [2] has as its system HOP-92 NSCLC.
Test [3] concerns MDA-MB-231 breast.
The test system of test [4] is NCI-H522 lung.
In test [5] the test system is SN12C renal.
Test [6] deals with HOP-62 NSCLC.
Test [7] relates to EKVX NSCLC.
The test system of test [8] is HT29 colon.
Test [9] concerns RPMI-8226 leukemia.
For test [10], the system named is A549 NSCLC.
The subject of test [11] is SK-OV-3 ovarian.
In test [12] the test system is OVCAR-3 ovarian.

Consider `CCOc1ncn(-c2ccc(NC(=S)Nc3cccc(O)c3)cc2)n1`, for which the TGI in test [1], in [2], in test [3], in test [4], in test [5] and in test [6] was more than 100 µM throughout. Besides, the TGI in test [7], in [8], in [9], in [10], in [11] and in [12] was more than 100 µM each time.

Consider `COC[C@H]1C(=O)NCC(=O)N2NCCC[C@H]2C(=O)N(O)[C@H](C)C(=O)O[C@@H](C(C)C)[C@H](NC(=O)[C@](C)(O)[C@]2(O)CC[C@@H](CC(C)C)[C@H](C)O2)C(=O)N2NCCC[C@@H]2C(=O)N1O`, for which the GI50 in [2] is 0.0161 µM; in test [3], less than 0.0111 µM; in test [4], 0.0171 µM; in test [5], less than 0.0126 µM; in test [6] it was less than 0.01 µM; in test [8], 0.0144 µM. Moreover, the GI50 in [10] was less than 0.0128 µM; in test [11] it was 0.0163 µM. The TGI in test [2] was 0.0377 µM; in test [3], 0.0432 µM; in test [4] it was 0.0377 µM; in [5], 0.0411 µM; in test [6], 0.0149 µM; in test [8], 0.0293 µM. Moreover, the TGI in test [10] was 0.028 µM; in [11], 0.0306 µM.

For the molecule `CC1(C)CCc2c(cc3c(c2O)CCC(C)(C)O3)O1`, the TGI in test [1], in [3], in [4], in test [5], in test [6] and in [7] was more than 100 µM throughout. Also, the TGI in [8], in test [10], in [11] and in [12] was more than 100 µM in each case.

For `Cc1ccc(OP2(=O)Oc3ccc4ccccc4c3CN2c2ccc(Cl)cc2)cc1C` (configuration not stated), the TGI in test [1], in [2], in test [4], in test [5], in [6] and in [7] was more than 100 µM throughout. Moreover, the TGI in test [8], in test [9], in test [10], in [11] and in [12] was more than 100 µM in each case.

`C=C/C(C)=C/[C@H](C)C(=O)C[C@H](O)CC1CC(=O)NC(=O)C1`: the TGI in test [1] is more than 94.7 µM; in [2], more than 89.6 µM; in test [4], more than 87.8 µM; in test [5] it was more than 100 µM; in [6], more than 91.1 µM; in [7] it was more than 100 µM. The TGI in [8], in test [9], in test [10], in test [11] and in test [12] was more than 100 µM in each case.

On to `COc1ccc2c(O)c3[n+](cc2c1OC)CCc1cc2c(cc1-3)OCO2`, for which the TGI in [1] is more than 100 µM; in test [2], more than 100 µM; in [3] it was more than 100 µM; in test [4], 46 µM; in test [5], more than 100 µM; in test [6] it was more than 100 µM. For the same molecule, the TGI in test [7], in [8], in test [9], in [10], in test [11] and in test [12] was more than 100 µM each time.

For the molecule `Nc1cc2c(cc1[N+](=O)[O-])[nH]c1c(-c3ccccc3)nccc12`, the TGI in test [1] was 76.7 µM; in test [2], 42.7 µM; in [4], 27.5 µM; in test [5], more than 100 µM; in test [6], 41.4 µM; in [7], more than 80.5 µM. Also, the TGI was 46.8 µM in test [8]; more than 100 µM in [9]; 69.6 µM in test [10]; 55.9 µM in test [11]; 48.5 µM in [12].

Regarding `COc1ccc(C(=O)C2CC3(CCC2(O)c2ccc(OC)cc2)CC(=O)Nc2ccccc2C3=O)cc1` (configuration not stated), the TGI in test [2], in [3], in [5], in test [6], in test [7] and in test [8] was more than 100 µM in each case. Further, the TGI in test [10], in test [11] and in test [12] was more than 100 µM each time.

Take `CO/C(=N\N=C(/C)C(F)(F)F)c1ccncc1`: the TGI in test [1], in test [2], in [3], in test [4], in test [5] and in test [6] was more than 100 µM each time. For the same molecule, the TGI in [8], in [9], in test [11] and in [12] was more than 100 µM throughout.
